Data set [1] has as its system sole reaction in sheep red blood cells (SRBC). Put plainly: sole reaction to sheep red blood cells (SRBC), foot volume increase 24 hours after induction. Particulars: 3.0 x 10⁻⁴ mol/kg orally for four days after the sensitization. The class given is in vivo, BALB/c mice. The protocol:
The actions of the compounds of the present invention in the course of creation of the cellular immunity were studied using the sole reaction in sheep red blood cells (SRBC).
BALB/c mice (female, age: 7 weeks) were sensitized by injecting 0.2 ml of SRBC adjusted to 2.5 x 10⁵ cells/ml with a physiological saline solution into caudal vein. Four days after the sensitization, the volume of the right foot of the mice was measured. Then, 0.025 ml of SRBC from the same lot as above adjusted to 4 x 10⁹ cells/ml was subcutaneously injected into the right sole to induce a reaction. 24 hours after the reaction has been induced, the intensity of the reaction was determined by subtracting the right foot volume before the reaction from the volume after the reaction. The test compounds at a concentration of 3.0 x 10⁻⁴ mol/kg were orally administered for four days after the sensitization.

The next data set deals with ICR mice. To be noted: mouse, in vivo, po. From the text:
Compounds obtained in Synthetic Examples 18, 35, and 66 were orally administered to ICR mice (each dose to each group consisting of 10 mice).

[2] abbreviates: against Control 3 (Purified water).
Where [3] appears, read: against Control 2 (5% ethanol-olive oil).

On to `Oc1cccc(CNCc2cccc(O)c2)c1` [Synthetic Example 7, N,N-bis(3-hydroxybenzyl)amine], for which, in data set [1] (setting [2]), the “Rate of suppression (%)” value is reported as 54.4%. Regarding `COc1ccc(CC(=O)NCCc2ccc(O)c(OC)c2)cc1O` [Synthetic Example 18, N-(4-hydroxy-3-methoxyphenetyl)-3-hydroxy-4-methoxyphenylacetamide], in the data set with ICR mice, the “dose up to which no death was caused” value was ≤ 1,000 mg/kg. As to `CN(Cc1ccc(O)cc1)C(=O)c1cccc(O)c1` [Synthetic Example 25, N-(4-hydroxybenzyl)-N-methyl-3-hydroxybenzamide], in data set [1] (setting [3]), the “Rate of suppression (%)” value came out at 26.7%. For `COc1ccc(CN(C)Cc2cccc(OC)c2)cc1` [Synthetic Example 27, N-(4-methoxybenzyl)-N-methyl-3-methoxybenzylamine], in data set [1] (setting [2]), the “Rate of suppression (%)” value is on record as 32.8%. As for `CN(Cc1ccc(O)cc1)Cc1cccc(O)c1` [Synthetic Example 30, N-(4-hydroxybenzyl)-N-methyl-3-hydroxybenzylamine], the “Rate of suppression (%)” value in data set [1] (setting [3]) came to 33.2%. Regarding `COc1ccc(CN(C)Cc2ccc(O)c(OC)c2)cc1O` [Synthetic Example 35, N-(4-hydroxy-3-methoxybenzyl)-N-methyl-3-hydroxy-4-methoxybenzylamine], the “dose up to which no death was caused” value in the data set with ICR mice is ≤ 1,000 mg/kg.

As for `COc1ccc(CNCc2ccc(OC)cc2)cc1.O=C(O)/C=C\C(=O)O` [Synthetic Example 46, N,N-bis(4-methoxybenzyl)amine maleate], the “Rate of suppression (%)” value in data set [1] (against Control 1 (0.5% gum arabic-purified water)) is on record as 38.1%.

Turning to `CCN(Cc1ccc(O)cc1)Cc1cccc(O)c1` [Synthetic Example 61, N-ethyl-N-(4-hydroxybenzyl)-3-hydroxybenzylamine], the “Rate of suppression (%)” value in data set [1] (setting [3]) was 21.8%. For the molecule `COc1ccc(CCNCCc2ccc(O)c(OC)c2)cc1O` [Synthetic Example 66, N-(4-hydroxy-3-methoxyphenetyl)-3-hydroxy-4-methoxyphenetylamine], in the data set with ICR mice, the “dose up to which no death was caused” value is given as ≤ 1,000 mg/kg.
